Entries after “also recorded” stand apart in the source; their conditions may differ.
Columns and labels:
DSS-induced colitis = experiment: Therapeutic DSS-induced colitis mouse model (Example 3); type: in vivo, male C57BL/6 mice; settings: 1 mg/kg per oral gavage once daily for 5 days from disease onset
Method: For this model, which is an often-used in vivo model for IBD, male C57BL/6 mice were treated with 2.8% DSS in drinking water for 5 days. Treatment with either vehicle (PEG400), 60 mg/kg sulfasalazine (positive control) or 1 mg/kg IMU-856 was given at disease onset (day 4 after start of DSS treatment) per oral gavage once daily for 5 days. Diarrhea score (normal consistency; soft; pasty, unshaped, not sticking to anus; diarrhea, sticking to anus; diarrhea with macroscopic bleeding) was assessed daily.
At the end of the study, mice were sacrificed and the colon was collected. Colon histology score consisting of an architecture score (0-3) and an infiltration score (0-3) was assessed based on hematoxylin and eosin-stained tissues slices.

[1] = tested on: patients with celiac disease; experiment: Duodenal biopsy histology with gluten challenge (villous height, Vh:Cd, Q-MARSH), Part C; type: in vivo, human; settings: for reduction in villous height: two weeks of 6 g/day gluten challenge; for mean change in villous height: baseline to Day 29, gluten challenge 6 g/day
Method: (§1) In Part A, healthy subjects were randomised to single ascending doses of IMU-856 (10 mg to 160 mg) or placebo. In Part B healthy subjects were randomised to multiple once-daily doses of IMU-856 (40, 80, and 160 mg) or placebo for 14 days. Part C randomised patients with celiac disease who were on a gluten-free diet to multiple once-daily doses of IMU-856 (80 mg and 160 mg) or placebo for 28 days; a once-daily gluten challenge (6 g) was introduced on Day 14 and ended on Day 28. 71 healthy subjects were enrolled in Part A and B (N=19 placebo and N=52 IMU-856) and 43 patients with CelD in Part C (N=14 placebo; N=14 for 80 mg, and N=15 for 160 mg). In Parts A and B, treatment-emergent adverse events (TEAEs) occurred in 24 (73%) and 15 (79%) of subjects receiving any dose of IMU-856 compared to 6 (50%) and 5 (71%) with placebo, respectively. […] In Part C, the most common adverse events with any dose of IMU-856 by preferred term were headache (13 [45%]), nausea (9 [31%]), diarrhoea (8 [28%]), and abdominal distension (7 [24%]). […] In Part C, the mean change in villous height from baseline to Day 29 with 80 mg and 160 mg was −20.9±34.8 μm, and −22.5±51.1 μm, respectively, and −60.3±52.2 μm with placebo. […] Mean change in plasma citrulline increased with 80 mg and 160 mg from baseline to Day 14 (2.4±6.2 and 6.1±5.9 μmol/L, respectively) and from baseline to Day 29 (2.8±7.6 and 2.2±5.3 μmol/L, respectively), but not with placebo (−2.7±5.6 and −4.0±6.5 μmol/L). […] Mean increase in zinc levels from baseline to Day 29 with 80 mg and 160 mg were 0.3±1.4 and 0.9±2.1 μmol/L compared to a mean decrease in placebo (−0.9±2.1 μmol/L). Gluten-induced symptoms were also attenuated by IMU-856.
FIG. 1 illustrates the flow chart of part C in celiac disease (CelD) designed as proof-of-concept study with a gluten challenge trial. Part C was planned to include a well-controlled celiac disease patient population: The patients were 100% seronegative, indicating absence of ongoing substantial gluten exposure and was performed at sites in Australia and New Zealand. Part C was designed to assess safety, tolerability and pharmacokinetics of IMU-856 and measured also histologic changes, blood biomarkers, nutrient uptake and disease-related symptoms.

plasma citrulline = experiment: Plasma citrulline, Part C; type: in vivo, human
Method: as §1
Also, biomarker response upon treatment of CelD with IMU-856 was assessed. […] A wide inter-individual range of IL-2 response leads to large SD, especially in the placebo group. […]

[2] = tested on: dextran sodium sulphate (DSS)-induced colitis; experiment: DSS-induced colitis model in mice (different settings); type: in vivo; settings: different settings of DSS colitis model

Compound: Cn1c(COc2cc(C(F)(F)F)ccn2)nnc1[C@H]1CC[C@H](c2cnn([C@H]3CC[C@H](N4CC5(CCO5)C4)CC3)c2)CC1 [IMU-856, 6-(trans-4-(4-(trans-4-(4-methyl-5-(((4-(trifluoromethyl)pyridin-2-yl)oxy)methyl)-4H-1,2,4-triazol-3-yl)cyclohexyl)-1H-pyrazol-1-yl)cyclohexyl)-1-oxa-6-azaspiro[3.3]heptane]
- colon histology score (DSS-induced colitis): reduction in the histology score
- diarrhea score (DSS-induced colitis): improvement of the diarrhea score which was similar or even better than the positive control
- reduction in villous height ([1]; 80 mg (N=11)): 20.9 μm
- mean change in villous height ([1]; 80 mg once daily): −20.9±34.8 μm
- reduction in villous height ([1]; 160 mg (N=13)): 22.5 μm
- mean change in villous height ([1]; 160 mg once daily): −22.5±51.1 μm
- villous height protection versus placebo ([1]; Baseline to Day 29): protects villous height as compared to placebo, reaching statistical significance
- patients with improvement in one Q-MARSH category ([1]; Day 29, after gluten challenge): two and Two
- Q-MARSH histological damage ([1]; change in Q-MARSH score between Baseline and Day 29): signals of preventing histological damage
- mean change in plasma citrulline (plasma citrulline; 80 mg, baseline to Day 14): 2.4 ± 6.2 µmol/L
- mean change in plasma citrulline (plasma citrulline; 160 mg, baseline to Day 29): 2.2 ± 5.3 µmol/L
- citrulline levels (plasma citrulline; in words): increased citrulline levels dose proportionally; also recorded: increased in both active treatment arms
- colon length [2]: increasing colon length
- colon mucosal histology [2]: improving colon mucosal histology
- diarrhea symptoms [2]: improving diarrhea symptoms
- disease severity [2]: reducing disease severity
